From PubChem BioAssay (NCI)
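Where inhibition never reached the appropriate level, the endpoint shown equals the highest concentration tested. Otherwise, values were interpolated linearly from a five-concentration, 48-hour dose response in 96-well plates. Abbreviation: GI50, concentration required for 50% inhibition of growth. TGI denotes the concentration required for complete inhibition of growth.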

Tests used:
Assay in all cases: inhibition of tumour cell growth, NCI panel, 48 h
ACHN renal = system: ACHN renal
COLO 205 colon = system: COLO 205 colon
U251 CNS = system: U251 CNS
UACC-257 melanoma = system: UACC-257 melanoma
SK-OV-3 ovarian = system: SK-OV-3 ovarian
SK-MEL-5 melanoma = system: SK-MEL-5 melanoma
HCT-15 colon = system: HCT-15 colon
RPMI-8226 leukemia = system: RPMI-8226 leukemia
SF-539 CNS = system: SF-539 CNS
HCT-116 colon = system: HCT-116 colon
HL-60(TB) leukemia = system: HL-60(TB) leukemia
NCI-H226 lung = system: NCI-H226 lung
MOLT-4 leukemia = system: MOLT-4 leukemia
MCF7 breast = system: MCF7 breast
KM12 colon = system: KM12 colon
SR leukemia = system: SR leukemia
SNB-19 CNS = system: SNB-19 CNS
A549 NSCLC = system: A549 NSCLC
SNB-75 CNS = system: SNB-75 CNS
HOP-62 NSCLC = system: HOP-62 NSCLC
786-0 renal = system: 786-0 renal
MDA-MB-231 breast = system: MDA-MB-231 breast
UO-31 renal = system: UO-31 renal
OVCAR-5 ovarian = system: OVCAR-5 ovarian
OVCAR-8 ovarian = system: OVCAR-8 ovarian
RXF 393 renal = system: RXF 393 renal
SK-MEL-2 melanoma = system: SK-MEL-2 melanoma
HT29 colon = system: HT29 colon
CCRF-CEM leukemia = system: CCRF-CEM leukemia

`C=C1CCC2C3(C)COC(c4c(F)cccc4F)OC3CCC2(C)C1C/C=C1/C(=O)OCC1O` (stereo not drawn) gave a GI50 (ACHN renal) of 1.75 µM, a TGI (ACHN renal) of 3.16 µM and a GI50 (COLO 205 colon) of 2.43 µM. It also gave a TGI (COLO 205 colon) of 5.27 µM, a GI50 (U251 CNS) of 1.81 µM and a TGI (U251 CNS) of 3.45 µM. The GI50 (UACC-257 melanoma) was 2.28 µM, the TGI (UACC-257 melanoma) was 8.77 µM and the GI50 (SK-OV-3 ovarian) was 17.8 µM. For the same molecule, the TGI (SK-OV-3 ovarian) was 32.4 µM, the GI50 (SK-MEL-5 melanoma) was 4.53 µM and the TGI (SK-MEL-5 melanoma) was 16.4 µM. The GI50 (HCT-15 colon) was 1.75 µM, the TGI (HCT-15 colon) was 4.12 µM and the GI50 (RPMI-8226 leukemia) was 2.37 µM. For the same molecule, the TGI (RPMI-8226 leukemia) was 5.77 µM, the GI50 (SF-539 CNS) was 1.81 µM and the TGI (SF-539 CNS) was 3.3 µM. For the same molecule, the GI50 (HCT-116 colon) was 1.61 µM, the TGI (HCT-116 colon) was 3.04 µM and the GI50 (HL-60(TB) leukemia) was 2 µM. The TGI (HL-60(TB) leukemia) was 5.03 µM, the GI50 (NCI-H226 lung) was 1.78 µM and the TGI (NCI-H226 lung) was 3.42 µM. For the same molecule, the GI50 (MOLT-4 leukemia) was 3.37 µM, the TGI (MOLT-4 leukemia) was 11.1 µM and the GI50 (MCF7 breast) was 1.95 µM. The TGI (MCF7 breast) was 5.48 µM, the GI50 (KM12 colon) was 2.54 µM and the TGI (KM12 colon) was 6.88 µM. It also gave a GI50 (SR leukemia) of 3.7 µM, a TGI (SR leukemia) of 12.5 µM and a GI50 (SNB-19 CNS) of 8.4 µM. It also gave a TGI (SNB-19 CNS) of 20.8 µM, a GI50 (A549 NSCLC) of 4.05 µM and a TGI (A549 NSCLC) of 17.2 µM. The GI50 (SNB-75 CNS) was 3.75 µM, the TGI (SNB-75 CNS) was 16.4 µM and the GI50 (HOP-62 NSCLC) was 11.3 µM. The TGI (HOP-62 NSCLC) was 24 µM, the GI50 (786-0 renal) was 1.8 µM and the TGI (786-0 renal) was 3.28 µM. It also gave a GI50 (MDA-MB-231 breast) of 2.29 µM, a TGI (MDA-MB-231 breast) of 5.45 µM and a GI50 (UO-31 renal) of 1.73 µM. For the same molecule, the TGI (UO-31 renal) was 3.99 µM, the GI50 (OVCAR-5 ovarian) was 2.17 µM and the TGI (OVCAR-5 ovarian) was 5.06 µM. The GI50 (OVCAR-8 ovarian) was 2.26 µM, the TGI (OVCAR-8 ovarian) was 7.04 µM and the GI50 (RXF 393 renal) was 3.46 µM. The TGI (RXF 393 renal) was 11.4 µM, the GI50 (SK-MEL-2 melanoma) was 2.88 µM and the TGI (SK-MEL-2 melanoma) was 8.52 µM. For the same molecule, the GI50 (HT29 colon) was 2.06 µM, the TGI (HT29 colon) was 4.26 µM and the GI50 (CCRF-CEM leukemia) was 2.24 µM. For the same molecule, the TGI (CCRF-CEM leukemia) was 6.68 µM.
